{"source": "paper PMC5218480", "about": "(PLoS ONE, 2017)", "test_system": "MV-4-11 cells", "test": "Gene expression microarray analysis (Affymetrix PrimeView) and GSEA", "format": "cell-based, human", "set-up": "RFU PODN (11730768_x_at) / Fold change /veh PODN (11730768_x_at) / RFU LINC00158 (11744669_a_at) / Fold change /veh LINC00158 (11744669_a_at) / RFU DUSP10 (11751237_a_at) / Fold change /veh DUSP10 (11751237_a_at) / RFU ID3 (11757404_x_at) / Fold change /veh ID3 (11757404_x_at) / RFU PLEKHG5 (11737974_s_at) / Fold change /veh PLEKHG5 (11737974_s_at) / RFU LRRC4B (11730491_at) / Fold change /veh LRRC4B (11730491_at) / RFU GIMAP4 (11747438_a_at) / Fold change /veh GIMAP4 (11747438_a_at) / RFU KRT8 (11758183_x_at) / Fold change /veh KRT8 (11758183_x_at) / RFU CNN1 (11734310_a_at) / Fold change /veh CNN1 (11734310_a_at) / RFU VPS37D (11726825_at) / Fold change /veh VPS37D (11726825_at) / RFU C10orf10 (11716522_x_at) / Fold change /veh C10orf10 (11716522_x_at) / RFU KIR2DL2 /// KIR2DL4 /// KIR2DL5A /// KIR2DL5B /// KIR2DS1 /// KIR2DS2 /// KIR2DS3 /// KIR2DS4 /// KIR3DL3 /// KIR3DL3 /// KIR3DS1 (11738374_at) / Fold change /veh KIR2DL2 /// KIR2DL4 /// KIR2DL5A /// KIR2DL5B /// KIR2DS1 /// KIR2DS2 /// KIR2DS3 /// KIR2DS4 /// KIR3DL3 /// KIR3DL3 /// KIR3DS1 (11738374_at) / RFU C1QL1 (11718748_at) / Fold change /veh C1QL1 (11718748_at) / RFU TMPRSS4 (11747572_a_at) / Fold change /veh TMPRSS4 (11747572_a_at) / RFU HAMP (11756126_x_at) / Fold change /veh HAMP (11756126_x_at) / RFU RNFT2 (11725882_a_at) / Fold change /veh RNFT2 (11725882_a_at) / RFU NR4A2 (11747474_a_at) / Fold change /veh NR4A2 (11747474_a_at) / RFU ABCC12 (11746883_a_at) / Fold change /veh ABCC12 (11746883_a_at) / RFU TMEM136 (11760407_x_at) / Fold change /veh TMEM136 (11760407_x_at) / RFU CLDN22 /// WWC2 (11732394_at) / Fold change /veh CLDN22 /// WWC2 (11732394_at) / RFU HLA-DPB1 (11760878_x_at) / Fold change /veh HLA-DPB1 (11760878_x_at) / RFU SPINT1 (11716480_a_at) / Fold change /veh SPINT1 (11716480_a_at) / RFU GAP43 (11754022_s_at) / Fold change /veh GAP43 (11754022_s_at) / RFU A4GNT (11735810_at) / Fold change /veh A4GNT (11735810_at) / RFU PRB3 (11715151_x_at) / Fold change /veh PRB3 (11715151_x_at) / RFU TUBB4B (11761932_at) / Fold change /veh TUBB4B (11761932_at) / RFU CAPN14 (11732068_a_at) / Fold change /veh CAPN14 (11732068_a_at) / RFU TMCC2 (11721928_a_at) / Fold change /veh TMCC2 (11721928_a_at) / RFU IRGQ (11745062_a_at) / Fold change /veh IRGQ (11745062_a_at) / RFU FAM174B (11720279_a_at) / Fold change /veh FAM174B (11720279_a_at) / RFU TMPRSS4 (11748680_a_at) / Fold change /veh TMPRSS4 (11748680_a_at) / RFU FAM212B (11763350_a_at) / Fold change /veh FAM212B (11763350_a_at) / RFU PLEKHG5 (11743358_a_at) / Fold change /veh PLEKHG5 (11743358_a_at) / RFU ZSCAN30 (11745921_a_at) / Fold change /veh ZSCAN30 (11745921_a_at) / RFU CMKLR1 (11741424_a_at) / Fold change /veh CMKLR1 (11741424_a_at) / RFU LOC101060620 /// MAPK8IP1 (11723275_at) / Fold change /veh LOC101060620 /// MAPK8IP1 (11723275_at) / RFU SPTSSB (11747773_x_at) / Fold change /veh SPTSSB (11747773_x_at) / RFU PRSS12 (11739890_at) / Fold change /veh PRSS12 (11739890_at) / RFU BIN1 (11741810_x_at) / Fold change /veh BIN1 (11741810_x_at) / RFU WNT11 (11732464_a_at) / Fold change /veh WNT11 (11732464_a_at) / RFU C10orf10 (11716521_a_at) / Fold change /veh C10orf10 (11716521_a_at) / RFU C5orf56 (11738089_at) / Fold change /veh C5orf56 (11738089_at) / RFU CYB561 (11721691_x_at) / Fold change /veh CYB561 (11721691_x_at) / RFU ANKRD19P (11752326_a_at) / Fold change /veh ANKRD19P (11752326_a_at) / RFU OR2T12 /// OR2T33 /// OR2T8 (11738714_s_at) / Fold change /veh OR2T12 /// OR2T33 /// OR2T8 (11738714_s_at) / RFU VCAN (11748164_a_at) / Fold change /veh VCAN (11748164_a_at) / RFU JSRP1 (11732532_at) / Fold change /veh JSRP1 (11732532_at) / RFU KRTAP10-11 (11738290_x_at) / Fold change /veh KRTAP10-11 (11738290_x_at) / RFU MYO3A (11730013_a_at) / Fold change /veh MYO3A (11730013_a_at) / RFU EBF3 (11725865_a_at) / Fold change /veh EBF3 (11725865_a_at) / RFU CAMK2N1 (11719241_x_at) / Fold change /veh CAMK2N1 (11719241_x_at) / RFU C5orf56 (11738088_a_at) / Fold change /veh C5orf56 (11738088_a_at) / RFU OLFML3 (11715873_a_at) / Fold change /veh OLFML3 (11715873_a_at) / RFU LOC100653217 /// NTM (11731650_a_at) / Fold change /veh LOC100653217 /// NTM (11731650_a_at) / RFU MAPK11 (11762145_a_at) / Fold change /veh MAPK11 (11762145_a_at) / RFU FIZ1 (11724087_x_at) / Fold change /veh FIZ1 (11724087_x_at) / RFU OASL (11726364_x_at) / Fold change /veh OASL (11726364_x_at) / RFU SOX15 (11748057_x_at) / Fold change /veh SOX15 (11748057_x_at) / RFU CD79A (11719716_a_at) / Fold change /veh CD79A (11719716_a_at) / RFU HIST1H1D (11736915_at) / Fold change /veh HIST1H1D (11736915_at) / RFU CASKIN2 (11723855_a_at) / Fold change /veh CASKIN2 (11723855_a_at) / RFU LOC730098 (11760151_x_at) / Fold change /veh LOC730098 (11760151_x_at) / RFU OR4N2 (11742367_at) / Fold change /veh OR4N2 (11742367_at) / RFU PRRT2 (11749266_a_at) / Fold change /veh PRRT2 (11749266_a_at) / RFU SNX32 (11753110_a_at) / Fold change /veh SNX32 (11753110_a_at) / RFU CDHR5 (11726645_a_at) / Fold change /veh CDHR5 (11726645_a_at) / RFU RCAN1 (11760418_a_at) / Fold change /veh RCAN1 (11760418_a_at) / RFU FAM167A (11723789_a_at) / Fold change /veh FAM167A (11723789_a_at) / RFU FAM26E (11764081_at) / Fold change /veh FAM26E (11764081_at) / RFU ISYNA1 (11749810_s_at) / Fold change /veh ISYNA1 (11749810_s_at) / RFU ACY1 (11761880_at) / Fold change /veh ACY1 (11761880_at) / RFU 11764098_at / Fold change /veh 11764098_at / RFU SAMD14 (11745864_x_at) / Fold change /veh SAMD14 (11745864_x_at) / RFU NPB (11741838_a_at) / Fold change /veh NPB (11741838_a_at) / RFU TMPRSS6 (11731388_a_at) / Fold change /veh TMPRSS6 (11731388_a_at) / RFU KRTAP10-2 (11738614_at) / Fold change /veh KRTAP10-2 (11738614_at) / RFU ARHGAP8 /// PRR5-ARHGAP8 (11727945_x_at) / Fold change /veh ARHGAP8 /// PRR5-ARHGAP8 (11727945_x_at) / RFU KRTAP5-7 /// NADSYN1 (11734609_at) / Fold change /veh KRTAP5-7 /// NADSYN1 (11734609_at) / RFU RASL12 (11751679_a_at) / Fold change /veh RASL12 (11751679_a_at) / RFU CDKN2B (11736163_a_at) / Fold change /veh CDKN2B (11736163_a_at) / RFU PRF1 (11729649_at) / Fold change /veh PRF1 (11729649_at) / RFU, ZNF638 /// ZNF638-IT1 / Fold change vs veh, ZNF638 /// ZNF638-IT1 / RFU, PANK3 / Fold change vs veh, PANK3 / RFU, SH3YL1 / Fold change vs veh, SH3YL1 / RFU, ZEB2 / Fold change vs veh, ZEB2 / RFU, NRIP1 / Fold change vs veh, NRIP1 / RFU, PTTG1IP / Fold change vs veh, PTTG1IP / RFU, CAPN2 / Fold change vs veh, CAPN2 / RFU, MED14 / Fold change vs veh, MED14 / RFU, SNORA58 / Fold change vs veh, SNORA58 / RFU, C1orf63 / Fold change vs veh, C1orf63 / RFU, LRRFIP1 / Fold change vs veh, LRRFIP1 / RFU, NDUFAF7 / Fold change vs veh, NDUFAF7 / RFU, SLC12A2 / Fold change vs veh, SLC12A2 / RFU, IBTK / Fold change vs veh, IBTK / RFU, ESF1 / Fold change vs veh, ESF1 / Fold change vs veh, TMEM50B / RFU, TAOK1 / Fold change vs veh, TAOK1 / RFU, ACBD3 / Fold change vs veh, ACBD3 / RFU, TMA16 / Fold change vs veh, TMA16 / RFU, RWDD3 / Fold change vs veh, RWDD3 / RFU, BCAT1 / Fold change vs veh, BCAT1 / RFU, EDEM3 / Fold change vs veh, EDEM3 / RFU, TMEM33 / Fold change vs veh, TMEM33 / RFU, WDR75 / Fold change vs veh, WDR75 / RFU, AHCTF1 / Fold change vs veh, AHCTF1 / RFU, TFRC / Fold change vs veh, TFRC / RFU, ZDHHC17 / Fold change vs veh, ZDHHC17 / RFU, NOM1 / Fold change vs veh, NOM1 / RFU, ARL8B / Fold change vs veh, ARL8B / RFU, ZBTB11 / Fold change vs veh, ZBTB11 / RFU, TAMM41 / Fold change vs veh, TAMM41 / RFU, KIAA1704 /// LOC100996395 / Fold change vs veh, KIAA1704 /// LOC100996395 / RFU, ING1 / Fold change vs veh, ING1 / RFU, TRMT61B / Fold change vs veh, TRMT61B / RFU, FUBP3 / Fold change vs veh, FUBP3 / RFU, TP53 / Fold change vs veh, TP53 / RFU, TNKS2 / Fold change vs veh, TNKS2 / RFU, ZFP14 / Fold change vs veh, ZFP14 / RFU, ACTR2 / Fold change vs veh, ACTR2 / RFU, PPP3R1 / Fold change vs veh, PPP3R1 / RFU, PIK3R1 / Fold change vs veh, PIK3R1 / RFU, HNRNPA1 / Fold change vs veh, HNRNPA1 / RFU, RNF170 / Fold change vs veh, RNF170 / RFU, ZNF28 / Fold change vs veh, ZNF28 / RFU, RNGTT / Fold change vs veh, RNGTT / RFU, OGT / Fold change vs veh, OGT / RFU, BRD1 / Fold change vs veh, BRD1 / RFU, MARS / Fold change vs veh, MARS / RFU, ZNF655 / Fold change vs veh, ZNF655 / RFU, FAHD1 / Fold change vs veh, FAHD1 / RFU, BDP1 / Fold change vs veh, BDP1 / RFU, LRRCC1 / Fold change vs veh, LRRCC1 / RFU, ARID1A / Fold change vs veh, ARID1A / RFU, ZNF146 / Fold change vs veh, ZNF146 / RFU, ZNF330 / Fold change vs veh, ZNF330 / RFU, GPN3 / Fold change vs veh, GPN3 / RFU, C9orf123 / Fold change vs veh, C9orf123 / RFU, N4BP2L2 / Fold change vs veh, N4BP2L2 / RFU, ARFIP1 / Fold change vs veh, ARFIP1 / RFU, FAM179B / Fold change vs veh, FAM179B / RFU, BCL10 / Fold change vs veh, BCL10 / RFU, UHRF1BP1L / Fold change vs veh, UHRF1BP1L / RFU, BET1 / Fold change vs veh, BET1 / RFU, CNOT2 / Fold change vs veh, CNOT2 / RFU, ZNF268 / Fold change vs veh, ZNF268 / Fold change vs veh, ZNF507 / RFU, DGCR2 / Fold change vs veh, DGCR2 / RFU, WDSUB1 / Fold change vs veh, WDSUB1 / Fold change vs veh, HSP90B1 /// MIR3652 / RFU, ADSS / Fold change vs veh, ADSS / RFU, GK / Fold change vs veh, GK / RFU, ZNF148 / Fold change vs veh, ZNF148 / RFU, TAF9 / Fold change vs veh, TAF9 / RFU, SLC1A5 / Fold change vs veh, SLC1A5 / RFU, SLMO2 / Fold change vs veh, SLMO2 / RFU, ABCC4 / Fold change vs veh, ABCC4 / RFU, LOC101060439 /// RAP1B / Fold change vs veh, LOC101060439 /// RAP1B / RFU, RFX7 / Fold change vs veh, RFX7 / RFU, GTPBP10 / Fold change vs veh, GTPBP10 / RFU, CNEP1R1 / Fold change vs veh, CNEP1R1 / RFU, BIVM-ERCC5 /// ERCC5 / Fold change vs veh, BIVM-ERCC5 /// ERCC5 / RFU, ILF3 / Fold change vs veh, ILF3 / RFU 11762660_at / Fold change /veh 11762660_at / RFU VCAN (11757783_s_at) / Fold change /veh VCAN (11757783_s_at) / RFU DDX43 (11728927_at) / Fold change /veh DDX43 (11728927_at) / RFU KRT8 (11758188_x_at) / Fold change /veh KRT8 (11758188_x_at) / RFU NKD1 (11759106_at) / Fold change /veh NKD1 (11759106_at) / RFU SRD5A1 (11742802_a_at) / Fold change /veh SRD5A1 (11742802_a_at) / RFU TPSAB1 /// TPSB2 (11721975_s_at) / Fold change /veh TPSAB1 /// TPSB2 (11721975_s_at) / RFU GSTM3 (11746129_a_at) / Fold change /veh GSTM3 (11746129_a_at) / RFU IL23R (11737362_x_at) / Fold change /veh IL23R (11737362_x_at) / RFU TMEM51 (11727254_a_at) / Fold change /veh TMEM51 (11727254_a_at) / RFU PIWIL2 (11732686_x_at) / Fold change /veh PIWIL2 (11732686_x_at) / RFU ORM1 (11744905_x_at) / Fold change /veh ORM1 (11744905_x_at) / RFU CCDC152 (11743942_at) / Fold change /veh CCDC152 (11743942_at) / RFU ECM1 (11717891_a_at) / Fold change /veh ECM1 (11717891_a_at) / RFU IL23R (11748794_a_at) / Fold change /veh IL23R (11748794_a_at) / RFU TNFAIP8L3 (11732012_x_at) / Fold change /veh TNFAIP8L3 (11732012_x_at) / RFU MBOAT4 (11741988_at) / Fold change /veh MBOAT4 (11741988_at) / RFU 11764193_at / Fold change /veh 11764193_at / RFU TMEM53 (11763286_at) / Fold change /veh TMEM53 (11763286_at) / RFU MAGEB2 (11727129_at) / Fold change /veh MAGEB2 (11727129_at) / RFU TMEM200A (11744735_a_at) / Fold change /veh TMEM200A (11744735_a_at) / RFU CCDC152 (11751479_a_at) / Fold change /veh CCDC152 (11751479_a_at) / RFU FAM211A (11726209_a_at) / Fold change /veh FAM211A (11726209_a_at) / RFU RGS16 (11746705_a_at) / Fold change /veh RGS16 (11746705_a_at) / RFU VCAN (11755009_s_at) / Fold change /veh VCAN (11755009_s_at) / RFU RHOB (11743442_s_at) / Fold change /veh RHOB (11743442_s_at) / RFU RGS16 (11720943_a_at) / Fold change /veh RGS16 (11720943_a_at) / RFU RGS16 (11720944_at) / Fold change /veh RGS16 (11720944_at) / RFU, VPS4B / Fold change vs veh, VPS4B / RFU, CREB1 / Fold change vs veh, CREB1 / RFU, DNAJC13 / Fold change vs veh, DNAJC13 / RFU, GNAQ / Fold change vs veh, GNAQ / RFU, CDK5R1 / Fold change vs veh, CDK5R1 / RFU, ZRANB3 / Fold change vs veh, ZRANB3 / RFU, CUL4A / Fold change vs veh, CUL4A / RFU, CCNY / Fold change vs veh, CCNY / RFU, UFL1 / Fold change vs veh, UFL1 / RFU, COG3 / Fold change vs veh, COG3 / RFU, DIAPH2 / Fold change vs veh, DIAPH2 / RFU, SKA2 / Fold change vs veh, SKA2 / RFU, AFF3 / Fold change vs veh, AFF3 / RFU, LMF1 / Fold change vs veh, LMF1 / RFU, IPO11 / Fold change vs veh, IPO11 / RFU, DFFB / Fold change vs veh, DFFB / RFU, FOXP1 / Fold change vs veh, FOXP1 / RFU, CARD8 / Fold change vs veh, CARD8 / RFU, STRN3 / Fold change vs veh, STRN3 / RFU, ADK / Fold change vs veh, ADK / RFU, RASSF2 / Fold change vs veh, RASSF2 / RFU, WIPF1 / Fold change vs veh, WIPF1 / RFU, LARP1B / Fold change vs veh, LARP1B / RFU, RASA1 / Fold change vs veh, RASA1 / RFU, RB1 / Fold change vs veh, RB1 / RFU, PPFIA1 / Fold change vs veh, PPFIA1 / RFU, MAT2A / Fold change vs veh, MAT2A / RFU, CCT5 / Fold change vs veh, CCT5 / RFU, WDR92 / Fold change vs veh, WDR92 / RFU, CUX1 / Fold change vs veh, CUX1 / RFU, TTC7A / Fold change vs veh, TTC7A / RFU, TMEM135 / Fold change vs veh, TMEM135 / RFU, DEPTOR / Fold change vs veh, DEPTOR / RFU, CPM / Fold change vs veh, CPM / RFU, DNAJB6 / Fold change vs veh, DNAJB6 / RFU, CACNA2D3 / Fold change vs veh, CACNA2D3 / RFU, DTX4 / Fold change vs veh, DTX4 / RFU, TFCP2 / Fold change vs veh, TFCP2 / RFU, GMCL1 /// GMCL1P1 / Fold change vs veh, GMCL1 /// GMCL1P1 / RFU, AEBP2 / Fold change vs veh, AEBP2 / RFU, SNHG1 /// SNORD22 /// SNORD25 /// SNORD26 /// SNORD27 /// SNORD28 /// SNORD29 /// SNORD31 / Fold change vs veh, SNHG1 /// SNORD22 /// SNORD25 /// SNORD26 /// SNORD27 /// SNORD28 /// SNORD29 /// SNORD31 / Fold change (Aza/veh), C12orf56 (ProbeSet 11735607_a_at) / Fold change (ACY-1035/veh), C12orf56 (ProbeSet 11735607_a_at) / Fold change (Aza/veh), FGFR1OP (ProbeSet 11751329_s_at) / Fold change (ACY-1035/veh), FGFR1OP (ProbeSet 11751329_s_at) / Fold change (Aza/veh), VPS36 (ProbeSet 11739960_a_at) / Fold change (ACY-1035/veh), VPS36 (ProbeSet 11739960_a_at) / RFU SYPL1 (11715823_x_at) / Fold change /veh SYPL1 (11715823_x_at) / RFU IGFBP7 (11715501_s_at) / Fold change /veh IGFBP7 (11715501_s_at) / RFU REEP3 (11722064_at) / Fold change /veh REEP3 (11722064_at) / RFU IGLL1 (11728026_x_at) / Fold change /veh IGLL1 (11728026_x_at): dose or concentration left out as unconfirmed", "conditions": "MV-4-11 cells, 48 hours", "data": [{"smiles": "Nc1ncn([C@@H]2O[C@H](CO)[C@@H](O)[C@H]2O)c(=O)n1", "note": "[azacitidine]", "values": [{"measurement": "RFU SPINT1 (11716480_a_at)", "value": 23.10, "unit": "RFU"}]}]}
